In patent publication US7576107B2 (dated 2009):

- melting point: 164 °C
SMILES: COCCNc1c(S(=O)(=O)C(F)(F)F)c(C#N)nn1-c1c(Cl)cc(C(F)(F)F)cc1Cl
